Laboratory results from patent US20200024278A1, “COMPOSITION COMPRISING ANTIBIOTIC COMPOUND AND AN HETEROCYCLIC COMPOUND AND THEIR USE IN PREVENTING OR TREATING BACTERIAL INFECTIONS” (MUTABILIS, priority 2016, published 2020).

Experiments:
ECO 190317 [1] = test: MIC, broth microdilution (CLSI), substance alone or ATB combined with compound at 4 or 8 μg/mL; format: cell-based, E. coli; conditions: Escherichia coli; substance alone; ECO 190317; read-out: MIC
Summary of the method: (§1)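 Broth microdilution; ca-MHB; 5·10^5 CFU/mL; 35° C, 16-20 h; compound alone or fixed 4/8 μg/mL with antibiotic series; endpoint = no visible growth.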

ECO UFR39 = test: as above; format: cell-based, E. coli; conditions: Escherichia coli; substance alone; ECO UFR39; read-out: MIC
Summary of the method: as §1

KPN BAA-1898 = test: as above; format: cell-based, K. pneumoniae; conditions: Klebsiella pneumoniae, BAA1898; substance alone; KPN BAA-1898; read-out: MIC
Summary of the method: as §1

KPN UFR42 = test: as above; format: cell-based, K. pneumoniae; conditions: Klebsiella pneumoniae; substance alone; KPN UFR42; read-out: MIC
Summary of the method: as §1

ECL P99 [2] = test: as above; format: cell-based, E. cloacae; conditions: Enterobacter cloacae; substance alone; ECL P99; read-out: MIC
Summary of the method: as §1

PAE 105250 = test: as above; format: cell-based, P. aeruginosa; conditions: PAE 105250; for MIC ATB combined with compound: compound @4 μg/ml
Summary of the method: as §1

PAE UFR48 [3] = test: as above; format: cell-based, P. aeruginosa; conditions: PAE UFR48; for MIC ATB combined with compound: compound @4 μg/ml
Summary of the method: as §1

PAE UFR90 [4] = test: as above; format: cell-based, P. aeruginosa; conditions: PAE UFR90; for MIC ATB combined with compound: compound @4 μg/ml
Summary of the method: as §1

SAU 29213 = test: as above; format: cell-based, S. aureus; conditions: for MIC ATB combined with compound: compound @4 μg/ml, SAU 29213
Summary of the method: as §1

SPN 49619 = test: as above; format: cell-based, S. pneumoniae; conditions: SPN 49619; for MIC ATB combined with compound: compound @4 μg/ml
Summary of the method: as §1

PAE UFR48 [5] = test: Fractional Inhibitory Concentration Index, checkerboard assay; format: cell-based, P. aeruginosa
Protocol: (§2) Method 2: Determination of the Fractional Inhibitory Concentration Index
(§3) Serial 2-fold dilutions of each antibiotic tested were prepared in ca-MHB and mixed in each well of a 96-well microtiter plate so that each row (and column) contained a fixed amount of one agent and increasing amounts of the second agent. The range of drug concentrations used in the checkerboard analysis was such that the dilution range encompassed the MIC for each drug used in the analysis. Broth microdilution plates were inoculated with each strain (Table 3) to yield 5.10^5 CFU/mL in a 100 μL final volume and incubated for 18 h at 35° C. in ambient air. Assays including Fosfomycin were supplemented with 25 μg/ml of Glucose-6-phosphate. MICs were determined after overnight incubation, and the fractional inhibitory concentration (FIC) index was calculated for each well. The FIC index (FICI) was calculated for each combination according to the equation FICI=FICa+FICb=(MIC of drug A in combination/MIC of drug A alone)+(MIC of drug B in combination/MIC of drug B alone). The FICI was interpreted as follows: synergy, FICI […]; indifference, 0.5<FIC<4; and antagonism, FICI>4. The checkerboard assays were performed in duplicate.

PAE UFR90 [6] = test: as above; format: cell-based, P. aeruginosa
Protocol: as §2, §3

KPN UFR68 = test: as above; format: cell-based, K. pneumoniae
Protocol: as §2, §3

ECL P99 [7] = test: as above; format: cell-based, E. cloacae
Protocol: as §2, §3

ECO 190317 [8] = test: as above; format: cell-based, E. coli
Protocol: as §2, §3

[9] = Pseudomonas aeruginosa, substance alone, read-out: MIC

## NC[C@@H]1C(c2ncco2)=C[C@@H]2CN1C(=O)N2OS(=O)(=O)[O-].O=C(O)C(F)(F)F.[Na+] [Example 5, Sodium and 2,2,2-trifluoroacetate [(2S,5R)-2-(azaniumylmethyl)-7-oxo-3-oxazol-2-yl-1,6-diazabicyclo[3.2.1]oct-3-en-6-yl] Sulfate]
ECO 190317 [1]
  MIC: ≤ 0.016 µg/mL
ECO UFR39
  MIC: ≤ 0.016 µg/mL
KPN BAA-1898
  MIC: 16 µg/mL
KPN UFR42
  MIC: 32 µg/mL
ECL P99 [2]
  MIC: ≤ 0.016 µg/mL
PAE 105250; ATB ATM
  MIC ATB combined with compound: <0.031 µg/mL
PAE 105250; ATB FEP
  MIC ATB combined with compound: <0.031 µg/mL
PAE 105250; ATB FOS
  MIC ATB combined with compound: 16 µg/mL
PAE 105250; ATB MEM
  MIC ATB combined with compound: <0.031 µg/mL
PAE 105250; ATB PIP
  MIC ATB combined with compound: <0.031 µg/mL
PAE 105250; [9]
  MIC: 4 µg/mL
PAE UFR48 [3]; ATB ATM
  MIC ATB combined with compound: <0.031 µg/mL
PAE UFR48 [3]; ATB FEP
  MIC ATB combined with compound: <0.031 µg/mL
PAE UFR48 [3]; ATB FOS
  MIC ATB combined with compound: 4 µg/mL
PAE UFR48 [3]; ATB MEM
  MIC ATB combined with compound: <0.031 µg/mL
PAE UFR48 [3]; ATB PIP
  MIC ATB combined with compound: <0.031 µg/mL
PAE UFR48 [3]; [9]
  MIC: 2 µg/mL
PAE UFR90 [4]; ATB ATM
  MIC ATB combined with compound: <0.031 µg/mL
PAE UFR90 [4]; ATB FEP
  MIC ATB combined with compound: <0.031 µg/mL
PAE UFR90 [4]; ATB FOS
  MIC ATB combined with compound: <0.125 µg/mL
PAE UFR90 [4]; ATB MEM
  MIC ATB combined with compound: <0.031 µg/mL
PAE UFR90 [4]; ATB PIP
  MIC ATB combined with compound: <0.031 µg/mL
PAE UFR90 [4]; [9]
  MIC: 0.25 µg/mL
SAU 29213; ATB ATM
  MIC ATB combined with compound: >32 µg/mL
SAU 29213; ATB FEP
  MIC ATB combined with compound: 2 µg/mL
SAU 29213; ATB FOS
  MIC ATB combined with compound: 0.5 µg/mL
SAU 29213; ATB MEM
  MIC ATB combined with compound: <=0.031 μg/mL
SAU 29213; ATB PIP
  MIC ATB combined with compound: 2 µg/mL
SAU 29213; Staphylococcus aureus, substance alone, SAU 29213 (MSSA 29213), read-out: MIC
  MIC: > 32 µg/mL
SPN 49619; ATB ATM
  MIC ATB combined with compound: >32 µg/mL
SPN 49619; ATB FEP
  MIC ATB combined with compound: 0.063 µg/mL
SPN 49619; ATB FOS
  MIC ATB combined with compound: 16 µg/mL
SPN 49619; ATB MEM
  MIC ATB combined with compound: 0.063 µg/mL
SPN 49619; ATB PIP
  MIC ATB combined with compound: 0.5 µg/mL
SPN 49619; Streptococcus pneumoniae, substance alone, read-out: MIC
  MIC: > 32 µg/mL
PAE UFR48 [5]; compound +ATM
  FIC index min: 0.34
PAE UFR48 [5]; compound +FEP
  FIC index min: 0.33
PAE UFR48 [5]; compound +FOS
  FIC index min: 0.88
PAE UFR48 [5]; compound +MEM
  FIC index min: 0.63
PAE UFR48 [5]; compound +PIP
  FIC index min: 0.52
PAE UFR90 [6]; compound +ATM
  FIC index min: 0.76
PAE UFR90 [6]; compound +FEP
  FIC index min: 0.69
PAE UFR90 [6]; compound +FOS
  FIC index min: 0.69
PAE UFR90 [6]; compound +MEM
  FIC index min: 0.81
PAE UFR90 [6]; compound +PIP
  FIC index min: 0.56
KPN UFR68; compound +ATM
  FIC index min: ≤0.008
KPN UFR68; compound +FEP
  FIC index min: ≤0.0098
KPN UFR68; compound +FOS
  FIC index min: 0.203
KPN UFR68; compound +MEM
  FIC index min: 0.020
KPN UFR68; compound +PIP
  FIC index min: ≤0.035
ECL P99 [7]; compound +ATM
  FIC index min: 0.23
ECL P99 [7]; compound +FEP
  FIC index min: 0.23
ECL P99 [7]; compound +FOS
  FIC index min: 0.16
ECL P99 [7]; compound +MEM
  FIC index min: 0.63
ECL P99 [7]; compound +PIP
  FIC index min: 0.32
ECO 190317 [8]; compound +ATM
  FIC index min: 0.52
ECO 190317 [8]; compound +FEP
  FIC index min: 0.25
ECO 190317 [8]; compound +FOS
  FIC index min: 0.66
ECO 190317 [8]; compound +MEM
  FIC index min: 0.76
ECO 190317 [8]; compound +PIP
  FIC index min: ≤0.56
